# Measurements reported in patent US9067898B1, “Isothiazole derivatives as GPR120 agonists for the treatment of type II diabetes” (Janssen Pharmaceutica NV, priority 2014, dated 2015).
# pEC50: −log10 of the molar value.
# Experiments:
# [1] = target: T1, long form of human GPR120 (Homo sapiens, UniProt Q5NUL3); experiment: Human GPR120 DiscoveRx PathHunter Beta-Arrestin assay, Procedure β-arrestin A; format: cell-based; settings: PathHunter CHO-K1 GPR120 β-Arrestin cell line, 3000 cells per well, read-out: hGPR120 β-arrestin A EC50
# T1 construct: host or cells: PathHunter CHO-K1 GPR120 β-Arrestin Cell Line
# T1 sequence (Q5NUL3 1-377 isoform Q5NUL3-1): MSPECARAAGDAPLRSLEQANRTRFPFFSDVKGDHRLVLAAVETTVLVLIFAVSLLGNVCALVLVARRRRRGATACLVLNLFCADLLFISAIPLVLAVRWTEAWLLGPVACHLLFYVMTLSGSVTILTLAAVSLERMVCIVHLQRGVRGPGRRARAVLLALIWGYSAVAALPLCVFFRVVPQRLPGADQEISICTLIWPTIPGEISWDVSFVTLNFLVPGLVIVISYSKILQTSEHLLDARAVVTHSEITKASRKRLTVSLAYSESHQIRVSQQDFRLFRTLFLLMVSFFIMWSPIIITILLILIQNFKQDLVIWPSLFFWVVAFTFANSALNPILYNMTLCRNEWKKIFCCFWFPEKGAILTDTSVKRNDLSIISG
# T1 sequence (P32121 whole entry partner): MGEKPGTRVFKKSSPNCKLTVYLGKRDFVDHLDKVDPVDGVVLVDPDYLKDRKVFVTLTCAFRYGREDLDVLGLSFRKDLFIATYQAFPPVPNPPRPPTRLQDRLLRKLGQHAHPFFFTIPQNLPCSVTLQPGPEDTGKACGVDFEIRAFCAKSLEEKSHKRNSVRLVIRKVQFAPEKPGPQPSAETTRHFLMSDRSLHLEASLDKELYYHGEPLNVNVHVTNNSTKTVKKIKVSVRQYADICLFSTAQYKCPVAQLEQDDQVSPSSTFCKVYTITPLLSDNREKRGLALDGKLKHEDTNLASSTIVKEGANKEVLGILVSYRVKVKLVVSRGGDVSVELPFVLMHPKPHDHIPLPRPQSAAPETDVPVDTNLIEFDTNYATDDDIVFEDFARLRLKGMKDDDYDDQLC
# Source text: The binding of an agonist (medium/long chain fatty acids or small molecule agonists) to the G-protein-coupled receptor GPR120 activates phospholipase C, leading to release of intracellular Ca^+2 through the generation of inositol 1,4,5-trisphosphate (InsP3 or IP3). GPR120 activation can also trigger intracellular signaling via recruitment of Beta-Arrestin. In the present method, agonist-induced activation of the human GPR120 receptor is monitored through the use of PathHunter CHO-K1 GPR120 Beta-Arrestin Cell Line engineered by DiscoveRx, as detailed below. The cell lines are designed to co-express both the ProLink/Enzyme Donor (PK)-tagged GPCR and the Enzyme […] (EA)-tagged Beta-Arrestin fusion proteins. Upon GPR120 receptor stimulation/activation, the EA-tagged Beta-Arrestin portion is translocated to the tagged receptor, where the two enzyme fragments are brought within close proximity. Under these conditions, these fragments can interact and form an active Beta-gal enzyme complex through Enzyme Fragment Complementation (EFC). This active Beta-gal complex can enzymatically hydrolyse the substrate to produce a detectable light signal; therefore, activation as a function of agonist concentration can be expressed as an EC50 value to determine relative compound activities. This in vitro assay therefore serves to assess compound agonist activity of the GPR120. Procedure β-Arrestin A: In Procedure β-arrestin A, the cell used were PathHunter CHO-K1 GPR120 β-Arrestin Cell Line, expressing the long form of human GPR120 (Genbank accession number NM 181745), with 3000 cells per well. Procedure β-Arrestin B: In Procedure 3-arrestin B the cells used were PathHunter CHO-K1 GPR120S β-Arrestin Cell Line, expressing the short form of the GPR120 receptor (Accession #NM_181745), with 5000 cells/well. Assay Procedure:
# The selected CHO-K1 GPR120 β-Arrestin cells were cultured in Ham's F12 media supplemented with 10% fetal bovine serum (FBS), 1% Glutamine, lx p/s, 800 μg/mL G418 and 300 μg/mL Hygromycin B (for selection). Cell stocks were maintained and grown in a sub-confluent state using standard cell culture procedures. The day before the experiment, the cells were harvested with non-enzymatic cell dissociation buffer and re-suspended in complete growth media at the desired concentration. A Corning 384-plate was then seeded with the proper number of cells in a volume of 25 μL, per well. The seeded plates were incubated overnight at 37° C.
# On the day of the experiment, the Assay Buffer containing (a) HBSS with Ca^++ and Mg^++, (b) 20 mM HEPES, and (c) 0.1% BSA stabilizer (pH 7.4) was prepared. The growth medium was gently removed from the cell plates and 20 μL of Assay Buffer added to each well. The plate was then incubated at 37° C. for 60 min. Test compounds were serially diluted in Assay Buffer to desired concentrations (more particularly to one or more of the following μM concentrations: 25, 12.5, 6.25, 3.125, 1.5625, 0.78125, 0.390625, 0.1953125, 0.09765625, 0.048828125, 0.024414063, 0.012207031). Five μL of compound dilution was then added to each well and the plate incubated at 37° C. for 90 min. The detection reagents were prepared according to the manufacture's instruction. Twelve μL of the detection reagents were added to each well and the plate incubated at room temperature for 60 min.
# The plates were read on an EnVision instrument, using Protocol name: Luminescence, Plate type: 384 Costar, Measurement height: 3 mm, Measurement time: 1 s, Aperture: 384 Plate aperture. The % activity relative to the positive control was calculated using the following equation:
# The % Activity values were plotted versus the concentration of test compound and fitted to a sigmoidal dose-response curve with a Hill slope=1 (fixed value) using nonlinear regression with GraphPad Prism 5.0 to calculate the EC50 values. […]
# Human GPR120 short form = target: T2, Human GPR120 short form (Homo sapiens, UniProt Q5NUL3); experiment: Human GPR120 calcium flux assay (FLIPR), Procedure Calcium A; format: cell-based; settings: HEK-293 cells expressing human GPR120 short form, 2500 cells/well; read-out: GPR120 Ca2+ Assay A EC50
# T2 construct: expressed in transfected cells
# T2 sequence (Q5NUL3 1-361): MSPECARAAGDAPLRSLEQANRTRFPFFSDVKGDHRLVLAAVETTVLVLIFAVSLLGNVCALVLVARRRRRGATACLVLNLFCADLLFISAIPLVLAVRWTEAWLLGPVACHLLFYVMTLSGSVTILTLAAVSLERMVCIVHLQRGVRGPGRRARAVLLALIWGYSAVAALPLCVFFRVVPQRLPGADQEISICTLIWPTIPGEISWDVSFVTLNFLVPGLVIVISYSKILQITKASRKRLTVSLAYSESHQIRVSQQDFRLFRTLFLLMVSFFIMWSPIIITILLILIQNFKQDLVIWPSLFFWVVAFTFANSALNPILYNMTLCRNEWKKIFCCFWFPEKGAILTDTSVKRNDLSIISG
# How it was run: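 HEK293 cells stably expressing the short isoform (NM_001195755.1), 2500/well, starved 1 h, then loaded with Fluo-4 NW plus probenecid (30 min 37 °C, 15 min RT). Compound solutions 0.012–100 μM, 0.2% DMSO final; FLIPR read 300 s after addition. EC50 from Fmax−Fmin fitted to variable-slope sigmoid (Hill <2).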
pEC50 [1],pEC50 (Human GPR120 short form),Structure (SMILES)
6.58,6.79,"CCc1ccc(-c2cc(Cl)sc2COc2ccc(CCCO)c(F)c2F)cc1 [Cpd 14, 3-(4-[[5-chloro-3-(4-ethylphenyl)thiophen-2-yl]methoxy]-2,3-difluorophenyl)propan-1-ol]"
6.97,6.20,"OCCCc1cc(F)c(OCc2sc(Cl)cc2-c2ccc(Cl)cc2)c(F)c1 [Cpd 19, 3-(4-[[5-chloro-3-(4-chlorophenyl)thiophen-2-yl]methoxy]-3,5-difluorophenyl)propan-1-ol]"
6.77,6.18,"CCc1ccc(-c2ccsc2COc2c(F)cc(CCCO)cc2F)cc1 [Cpd 20, 3-(4-[[3-(4-ethylphenyl)thiophen-2-yl]methoxy]-3,5-difluorophenyl)propan-1-ol]"
6.30,7.34,"O=C(O)CCc1cc(F)c(OCc2c(C3=CCCC3)csc2C(F)(F)F)c(F)c1 [Cpd 31, 3-(4-((4-(cyclopent-1-en-1-yl)-2-(trifluoromethyl)thiophen-3-yl)methoxy)-3,5-difluorophenyl)propanoic acid]"
7.51,7.32,"CCc1ccc(-c2sc(C)c(C(F)(F)F)c2COc2c(F)cc(CCCO)cc2F)cc1 [Cpd 32, 3-(4-[[2-(4-ethylphenyl)-5-methyl-4-(trifluoromethyl)thiophen-3-yl]methoxy]-3,5-difluorophenyl)propan-1-ol]"
6.68,7.19,"COc1ccc(-c2csc(C(F)(F)F)c2COc2c(F)cc(CCC(=O)O)cc2F)cc1 [Cpd 34, 3-(3,5-difluoro-4-((4-(4-methoxyphenyl)-2-(trifluoromethyl)thiophen-3-yl)methoxy)phenyl)propanoic acid]"
6.57,7.15,"O=C(O)CCc1cc(F)c(OCc2c(-c3ccc(Cl)cc3)csc2C(F)(F)F)c(F)c1 [Cpd 35, 3-(4-((4-(4-chlorophenyl)-2-(trifluoromethyl)thiophen-3-yl)methoxy)-3,5-difluorophenyl)propanoic acid]"
7.15,7.00,"COc1ccc(-c2csc(C(F)(F)F)c2COc2c(F)cc(CCCO)cc2F)cn1 [Cpd 38, 3-(3,5-difluoro-4-((4-(6-methoxypyridin-3-yl)-2-(trifluoromethyl)thiophen-3-yl)methoxy)phenyl)propan-1-61]"
6.15,6.85,"CCc1ccc(-c2cscc2COc2ccc(CCC(=O)O)c(C)c2C)cc1 [Cpd 41, 3-(4-((4-(4-ethylphenyl)thiophen-3-yl)methoxy)-2,3-dimethylphenyl)propanoic acid]"
6.35,6.84,"COc1ccc(-c2csc(C(F)(F)F)c2COc2c(F)cc(CCC(=O)O)cc2F)cn1 [Cpd 42, 3-(3,5-difluoro-4-((4-(6-methoxypyridin-3-yl)-2-(trifluoromethyl)thiophen-3-yl)methoxy)phenyl)propanoic acid]"
6.23,6.83,"CCc1ccc(-c2cscc2COc2ccc(CCC(=O)O)c(F)c2F)cc1 [Cpd 43, 3-(4-((4-(4-ethylphenyl)thiophen-3-yl)methoxy)-2,3-difluorophenyl)propanoic acid]"
6.34,6.82,"O=C(O)CCc1cc(F)c(OCc2c(-c3ccc4c(c3)OCO4)csc2C(F)(F)F)c(F)c1 [Cpd 44, 3-(4-((4-(benzo[d][1,3]dioxol-5-yl)-2-(trifluoromethyl)thiophen-3-yl)methoxy)-3,5-difluorophenyl)propanoic acid]"
6.91,6.81,"COc1ccc(-c2csc(C(F)(F)F)c2COc2c(F)cc(CCCO)cc2F)cc1 [Cpd 45, 3-(3,5-difluoro-4-((4-(4-methoxyphenyl)-2-(trifluoromethyl)thiophen-3-yl)methoxy)phenyl)propan-1-ol]"
6.90,6.78,"OCCCc1cc(F)c(OCc2c(-c3ccc(Cl)cc3)csc2C(F)(F)F)c(F)c1 [Cpd 46, 3-(4-[[4-(4-chlorophenyl)-2-(trifluoromethyl)thiophen-3-yl]methoxy]-3,5-difluorophenyl)propan-1-ol]"
6.63,6.77,"CCc1ccc(-c2sccc2COc2ccc(CCC(=O)O)c(F)c2F)cc1 [Cpd 48, 3-(4-((2-(4-ethylphenyl)thiophen-3-yl)methoxy)-2,3-difluorophenyl)propanoic acid]"
6.52,6.77,"CCc1ccc(-c2sccc2COc2ccc(CCC(=O)O)c(C)c2C)cc1 [Cpd 49, 3-(4-((2-(4-ethylphenyl)thiophen-3-yl)methoxy)-2,3-dimethylphenyl)propanoic acid]"
7.00,6.77,"O=C(O)CCc1cc(F)c(OCc2c(-c3ccc(Cl)cc3)csc2C(F)(F)F)c(F)c1F [Cpd 50, 3-(4-((4-(4-chlorophenyl)-2-(trifluoromethyl)thiophen-3-yl)methoxy)-2,3,5-trifluorophenyl)propanoic acid]"
6.67,6.76,"O=C(O)CCc1cc(F)c(OCc2c(-c3ccc4c(c3)CCO4)csc2C(F)(F)F)c(F)c1 [Cpd 51, 3-(4-((4-(2,3-dihydrobenzofuran-5-yl)-2-(trifluoromethyl)thiophen-3-yl)methoxy)-3,5-difluorophenyl)propanoic acid]"
6.46,6.74,"CCc1ccc(-c2sccc2COc2c(F)cc(CCC(=O)O)cc2F)cc1 [Cpd 52, 3-(4-((2-(4-ethylphenyl)thiophen-3-yl)methoxy)-3,5-difluorophenyl)propanoic acid]"
6.18,6.72,"CCc1ccc(-c2cscc2COc2c(F)cc(CCC(=O)O)cc2F)cc1 [Cpd 53, 3-(4-((4-(4-ethylphenyl)thiophen-3-yl)methoxy)-3,5-difluorophenyl)propanoic acid]"
6.97,6.63,"OCCCc1cc(F)c(OCc2c(-c3ccc(Cl)cc3)csc2C(F)(F)F)c(F)c1F [Cpd 56, 3-(4-((4-(4-chlorophenyl)-2-(trifluoromethyl)thiophen-3-yl)methoxy)-2,3,5-trifluorophenyl)propan-1-ol]"
6.19,6.53,"Cc1c(CCC(=O)O)ccc(OCc2c(-c3ccc(F)cc3)csc2C(F)(F)F)c1C [Cpd 58, 3-(4-((4-(4-fluorophenyl)-2-(trifluoromethyl)thiophen-3-yl)methoxy)-2,3-dimethylphenyl)propanoic acid]"
6.97,7.72,"CCc1ccc(-c2snc(Cl)c2COc2ccc(CCC(=O)O)c(F)c2F)cc1 [Cpd 66, 3-(4-[[3-chloro-5-(4-ethylphenyl)-1,2-thiazol-4-yl]methoxy]-2,3-difluorophenyl)propanoic acid]"
